≈ marks a conversion by molar mass, not a printed value. Blank lines part the entries; values can stand above or below the compound they belong to.
Legend:
[1] = target: Phosphatidylinositol 4,5-bisphosphate 3-kinase catalytic subunit alpha isoform (Homo sapiens, UniProt P42336); test: Inhibition of PI3Kalpha (unknown origin)
[2] = target: Phosphatidylinositol 4,5-bisphosphate 3-kinase catalytic subunit beta isoform (Homo sapiens, UniProt P42338); test: Inhibition of PI3Kbeta (unknown origin)
[3] = target: Phosphatidylinositol 4,5-bisphosphate 3-kinase catalytic subunit gamma isoform (Homo sapiens, UniProt P48736); test: Inhibition of PI3Kgamma (unknown origin)
Chain of Phosphatidylinositol 4,5-bisphosphate 3-kinase catalytic subunit gamma isoform (P48736 whole entry, canonical isoform): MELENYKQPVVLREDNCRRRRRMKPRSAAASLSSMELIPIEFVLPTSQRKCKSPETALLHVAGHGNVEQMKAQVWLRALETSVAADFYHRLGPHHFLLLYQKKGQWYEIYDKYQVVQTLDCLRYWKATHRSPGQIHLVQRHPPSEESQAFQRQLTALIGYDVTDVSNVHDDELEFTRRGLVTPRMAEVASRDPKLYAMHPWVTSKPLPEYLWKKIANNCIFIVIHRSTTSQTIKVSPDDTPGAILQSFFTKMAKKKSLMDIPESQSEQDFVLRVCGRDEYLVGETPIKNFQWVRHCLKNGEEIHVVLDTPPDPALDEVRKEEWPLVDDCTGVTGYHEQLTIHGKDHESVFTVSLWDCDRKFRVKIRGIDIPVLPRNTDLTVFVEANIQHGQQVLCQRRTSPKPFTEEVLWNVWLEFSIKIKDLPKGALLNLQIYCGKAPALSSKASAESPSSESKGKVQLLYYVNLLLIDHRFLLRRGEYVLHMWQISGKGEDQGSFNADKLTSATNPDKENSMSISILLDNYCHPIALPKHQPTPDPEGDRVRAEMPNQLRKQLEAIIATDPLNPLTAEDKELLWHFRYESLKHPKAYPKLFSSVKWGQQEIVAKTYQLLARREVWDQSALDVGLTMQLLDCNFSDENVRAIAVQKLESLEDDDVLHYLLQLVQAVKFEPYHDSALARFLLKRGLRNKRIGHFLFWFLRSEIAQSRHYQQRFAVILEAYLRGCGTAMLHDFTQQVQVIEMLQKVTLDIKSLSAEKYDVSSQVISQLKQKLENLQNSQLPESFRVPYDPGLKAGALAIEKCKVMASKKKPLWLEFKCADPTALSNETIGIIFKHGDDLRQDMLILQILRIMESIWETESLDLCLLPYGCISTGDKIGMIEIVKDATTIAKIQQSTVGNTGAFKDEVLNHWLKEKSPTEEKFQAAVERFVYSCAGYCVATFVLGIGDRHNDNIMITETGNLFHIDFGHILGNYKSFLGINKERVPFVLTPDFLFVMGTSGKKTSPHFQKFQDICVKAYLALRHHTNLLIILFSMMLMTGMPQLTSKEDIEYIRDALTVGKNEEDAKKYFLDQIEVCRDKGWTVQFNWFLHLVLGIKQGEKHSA

[4] = target: T1, Phosphatidylinositol 4,5-bisphosphate 3-kinase catalytic subunit delta isoform (Homo sapiens, UniProt O00329); test: Inhibition of PI3Kdelta (unknown origin)
T1 sequence (O00329 whole entry): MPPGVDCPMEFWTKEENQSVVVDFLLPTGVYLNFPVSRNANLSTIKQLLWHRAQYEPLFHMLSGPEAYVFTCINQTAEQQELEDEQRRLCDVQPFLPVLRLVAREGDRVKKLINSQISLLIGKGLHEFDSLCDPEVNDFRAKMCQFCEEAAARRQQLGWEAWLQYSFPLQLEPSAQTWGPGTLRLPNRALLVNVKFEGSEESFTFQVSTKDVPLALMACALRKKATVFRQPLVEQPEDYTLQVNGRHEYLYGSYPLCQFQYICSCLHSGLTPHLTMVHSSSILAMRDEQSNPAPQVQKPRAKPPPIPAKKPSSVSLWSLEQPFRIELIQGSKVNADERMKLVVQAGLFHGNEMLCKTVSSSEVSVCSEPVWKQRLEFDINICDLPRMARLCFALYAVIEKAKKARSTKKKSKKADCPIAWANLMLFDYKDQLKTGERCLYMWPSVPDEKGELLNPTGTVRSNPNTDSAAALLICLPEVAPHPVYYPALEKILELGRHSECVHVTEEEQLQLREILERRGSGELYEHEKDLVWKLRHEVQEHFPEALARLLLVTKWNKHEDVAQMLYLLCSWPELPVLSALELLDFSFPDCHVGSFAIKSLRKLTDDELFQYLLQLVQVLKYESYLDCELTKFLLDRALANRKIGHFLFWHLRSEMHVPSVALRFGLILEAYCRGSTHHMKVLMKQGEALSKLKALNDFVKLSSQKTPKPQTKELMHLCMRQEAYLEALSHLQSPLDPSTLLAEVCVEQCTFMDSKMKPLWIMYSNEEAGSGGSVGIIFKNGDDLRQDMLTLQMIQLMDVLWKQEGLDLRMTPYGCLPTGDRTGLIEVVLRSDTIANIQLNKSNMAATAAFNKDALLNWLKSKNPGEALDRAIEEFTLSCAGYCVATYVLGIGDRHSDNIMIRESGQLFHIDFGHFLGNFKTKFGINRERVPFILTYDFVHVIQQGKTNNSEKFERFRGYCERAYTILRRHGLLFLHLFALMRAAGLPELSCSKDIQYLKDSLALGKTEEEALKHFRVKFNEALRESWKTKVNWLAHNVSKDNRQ

SNB-75 = test: Antiproliferative activity against human SNB-75 cells assessed as reduction in cell growth incubated for 48 hrs by SRB assay; format: functional, cell-based; conditions: SNB-75, 48 h
Aurora kinase B = Aurora kinase B (Homo sapiens, UniProt Q96GD4); test: Inhibition of Aurora B (unknown origin)
Chain of Aurora kinase B (Q96GD4 whole entry): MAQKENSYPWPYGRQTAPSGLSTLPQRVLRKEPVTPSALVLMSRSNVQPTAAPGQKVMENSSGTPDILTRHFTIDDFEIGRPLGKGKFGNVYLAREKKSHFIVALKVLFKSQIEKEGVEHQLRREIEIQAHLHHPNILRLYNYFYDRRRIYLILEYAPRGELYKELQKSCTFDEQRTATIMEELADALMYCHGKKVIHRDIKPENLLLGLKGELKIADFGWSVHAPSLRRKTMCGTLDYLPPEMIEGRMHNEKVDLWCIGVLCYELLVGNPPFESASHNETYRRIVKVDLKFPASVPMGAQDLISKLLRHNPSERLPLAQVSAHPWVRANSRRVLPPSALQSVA

HeLa = test: Cytotoxicity against human HeLa cells assessed as reduction in cell growth incubated for 5 days by MTT assay; format: functional, cell-based; conditions: 120 h
MCF7 [5] = test: Cytotoxicity against human MCF7 cells assessed as reduction in cell growth incubated for 5 days by MTT assay; format: functional, cell-based; conditions: MCF7, 120 h
[6] = target: Hepatocyte growth factor receptor (Homo sapiens, UniProt P08581); test: Inhibition of c-Met (unknown origin)
Chain of Hepatocyte growth factor receptor (P08581 whole entry): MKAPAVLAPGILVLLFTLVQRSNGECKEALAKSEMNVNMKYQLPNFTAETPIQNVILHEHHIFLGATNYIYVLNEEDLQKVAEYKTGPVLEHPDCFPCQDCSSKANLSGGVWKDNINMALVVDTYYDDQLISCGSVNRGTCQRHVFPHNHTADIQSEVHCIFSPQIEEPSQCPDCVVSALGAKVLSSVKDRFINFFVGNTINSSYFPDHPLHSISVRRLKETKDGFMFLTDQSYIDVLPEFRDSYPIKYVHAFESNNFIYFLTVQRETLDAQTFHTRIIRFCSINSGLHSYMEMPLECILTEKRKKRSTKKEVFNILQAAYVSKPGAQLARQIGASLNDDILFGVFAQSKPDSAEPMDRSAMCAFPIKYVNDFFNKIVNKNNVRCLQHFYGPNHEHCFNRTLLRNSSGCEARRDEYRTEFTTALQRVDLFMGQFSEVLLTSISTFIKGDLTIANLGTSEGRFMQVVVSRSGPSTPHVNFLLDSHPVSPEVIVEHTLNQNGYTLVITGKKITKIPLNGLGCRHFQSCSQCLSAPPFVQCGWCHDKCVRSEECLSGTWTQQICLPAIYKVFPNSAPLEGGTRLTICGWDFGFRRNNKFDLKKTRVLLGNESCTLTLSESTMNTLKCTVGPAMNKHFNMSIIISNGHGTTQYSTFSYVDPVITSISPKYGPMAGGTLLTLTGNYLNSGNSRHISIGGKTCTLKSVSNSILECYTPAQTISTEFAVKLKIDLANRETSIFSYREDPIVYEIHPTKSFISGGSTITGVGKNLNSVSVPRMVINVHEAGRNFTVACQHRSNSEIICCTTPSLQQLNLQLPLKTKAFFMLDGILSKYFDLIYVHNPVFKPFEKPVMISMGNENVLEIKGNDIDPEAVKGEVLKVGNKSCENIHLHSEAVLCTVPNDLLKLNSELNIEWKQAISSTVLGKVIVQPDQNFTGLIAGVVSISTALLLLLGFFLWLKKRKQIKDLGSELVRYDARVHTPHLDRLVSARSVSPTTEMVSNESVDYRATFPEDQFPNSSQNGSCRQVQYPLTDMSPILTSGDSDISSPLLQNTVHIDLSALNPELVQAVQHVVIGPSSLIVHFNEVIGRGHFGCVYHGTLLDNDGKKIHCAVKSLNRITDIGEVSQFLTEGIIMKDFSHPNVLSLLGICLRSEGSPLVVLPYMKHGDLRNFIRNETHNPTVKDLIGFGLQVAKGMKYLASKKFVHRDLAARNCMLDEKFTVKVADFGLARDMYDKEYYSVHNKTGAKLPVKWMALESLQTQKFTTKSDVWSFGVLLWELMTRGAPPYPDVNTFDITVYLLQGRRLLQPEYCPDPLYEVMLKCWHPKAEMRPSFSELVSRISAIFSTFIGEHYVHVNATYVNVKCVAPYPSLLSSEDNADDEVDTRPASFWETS

A549 = test: Cytotoxicity against human A549 cells assessed as reduction in cell growth incubated for 5 days by MTT assay; format: functional, cell-based; conditions: A549, 120 h
HepG2 = test: Cytotoxicity against human HepG2 cells assessed as reduction in cell viability measured for 48 hrs by MTT assay; format: functional, cell-based; conditions: HepG2, 48 h
MCF7 [7] = test: Cytotoxicity against human MCF7 cells assessed as reduction in cell viability measured for 48 hrs by MTT assay; format: functional, cell-based; conditions: MCF7, 48 h
PC-3 [8] = test: Cytotoxicity against human PC-3 cells assessed as reduction in cell viability measured for 48 hrs by MTT assay; format: functional, cell-based; conditions: PC-3, 48 h
HCT-116 [9] = test: Cytotoxicity against human HCT-116 cells assessed as reduction in cell viability measured for 48 hrs by MTT assay; format: functional, cell-based; conditions: HCT-116, 48 h
[10] = target: Epidermal growth factor receptor (Homo sapiens, UniProt P00533); test: Inhibition of EGFR (unknown origin) extracted from insect cells by ELISA method; format: cell-free, Insect cell
Chain of Epidermal growth factor receptor (P00533 whole entry): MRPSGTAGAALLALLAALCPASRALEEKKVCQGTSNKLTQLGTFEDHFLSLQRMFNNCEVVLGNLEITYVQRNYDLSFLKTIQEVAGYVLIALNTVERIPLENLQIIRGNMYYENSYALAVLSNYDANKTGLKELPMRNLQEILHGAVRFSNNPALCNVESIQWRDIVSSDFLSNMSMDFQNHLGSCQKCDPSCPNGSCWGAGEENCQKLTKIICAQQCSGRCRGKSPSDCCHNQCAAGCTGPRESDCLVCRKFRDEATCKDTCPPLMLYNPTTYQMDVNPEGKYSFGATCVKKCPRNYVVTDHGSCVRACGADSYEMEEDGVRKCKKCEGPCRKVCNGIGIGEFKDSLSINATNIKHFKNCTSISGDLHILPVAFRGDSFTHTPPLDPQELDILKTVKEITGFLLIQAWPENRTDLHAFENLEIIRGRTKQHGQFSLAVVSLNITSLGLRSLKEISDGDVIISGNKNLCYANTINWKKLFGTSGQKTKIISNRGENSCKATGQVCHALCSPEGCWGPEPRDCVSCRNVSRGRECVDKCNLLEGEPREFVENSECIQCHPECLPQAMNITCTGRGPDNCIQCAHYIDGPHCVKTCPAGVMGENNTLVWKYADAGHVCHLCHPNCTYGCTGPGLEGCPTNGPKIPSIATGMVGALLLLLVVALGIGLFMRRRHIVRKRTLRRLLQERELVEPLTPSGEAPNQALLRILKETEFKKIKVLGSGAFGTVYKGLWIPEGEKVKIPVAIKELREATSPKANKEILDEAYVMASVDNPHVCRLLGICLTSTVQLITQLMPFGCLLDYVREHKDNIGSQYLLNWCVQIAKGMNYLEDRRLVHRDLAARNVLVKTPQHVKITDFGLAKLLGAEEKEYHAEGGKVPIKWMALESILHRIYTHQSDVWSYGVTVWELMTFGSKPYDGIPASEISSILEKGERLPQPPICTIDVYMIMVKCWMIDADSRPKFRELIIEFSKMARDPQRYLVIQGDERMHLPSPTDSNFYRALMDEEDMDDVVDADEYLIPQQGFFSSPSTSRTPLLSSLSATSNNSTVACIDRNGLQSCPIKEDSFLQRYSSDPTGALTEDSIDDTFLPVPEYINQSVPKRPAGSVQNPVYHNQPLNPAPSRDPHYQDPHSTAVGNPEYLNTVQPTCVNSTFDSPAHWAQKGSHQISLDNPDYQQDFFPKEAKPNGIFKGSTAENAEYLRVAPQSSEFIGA

[11] = Antiproliferative activity against mouse Ba/F3 EML4-ALK-G1202R-L1196M cells assessed as inhibition of cell growth; format: functional, cell-based
[12] = Antiproliferative activity against mouse Ba/F3 EML4-ALK cells assessed as inhibition of cell growth; format: functional, cell-based
MGC-803 = test: Antitumor activity against human MGC-803 cells xenografted in nude mouse assessed as tumor inhibition at 20 mg/kg, ip administered once every two days for 21 days relative to control; format: functional; set-up: scale not given: the % may be the effect or the level left; conditions: time 21 day
PC-3 [13] = test: cells; conditions: Homo sapiens, PC-3, 72 h
Description: Cytotoxicity against human PC-3 cells assessed as inhibition of cell growth incubated for 72 hrs by MTT assay

HCT-116 [14] = test: Cytotoxicity against human HCT-116 cells assessed as reduction in cell viability incubated for 72 hrs by MTT assay; format: functional, cell-based; conditions: HCT-116, 72 h
T47D = test: cells; conditions: Homo sapiens
Description: Antiproliferative activity against human T47D cells assessed as reduction in cell viability

MDA-MB-231 = test: cells; conditions: Homo sapiens
Description: Antiproliferative activity against human MDA-MB-231 cells assessed as reduction in cell viability

Chain of Phosphatidylinositol 4,5-bisphosphate 3-kinase catalytic subunit beta isoform (P42338 whole entry, canonical isoform): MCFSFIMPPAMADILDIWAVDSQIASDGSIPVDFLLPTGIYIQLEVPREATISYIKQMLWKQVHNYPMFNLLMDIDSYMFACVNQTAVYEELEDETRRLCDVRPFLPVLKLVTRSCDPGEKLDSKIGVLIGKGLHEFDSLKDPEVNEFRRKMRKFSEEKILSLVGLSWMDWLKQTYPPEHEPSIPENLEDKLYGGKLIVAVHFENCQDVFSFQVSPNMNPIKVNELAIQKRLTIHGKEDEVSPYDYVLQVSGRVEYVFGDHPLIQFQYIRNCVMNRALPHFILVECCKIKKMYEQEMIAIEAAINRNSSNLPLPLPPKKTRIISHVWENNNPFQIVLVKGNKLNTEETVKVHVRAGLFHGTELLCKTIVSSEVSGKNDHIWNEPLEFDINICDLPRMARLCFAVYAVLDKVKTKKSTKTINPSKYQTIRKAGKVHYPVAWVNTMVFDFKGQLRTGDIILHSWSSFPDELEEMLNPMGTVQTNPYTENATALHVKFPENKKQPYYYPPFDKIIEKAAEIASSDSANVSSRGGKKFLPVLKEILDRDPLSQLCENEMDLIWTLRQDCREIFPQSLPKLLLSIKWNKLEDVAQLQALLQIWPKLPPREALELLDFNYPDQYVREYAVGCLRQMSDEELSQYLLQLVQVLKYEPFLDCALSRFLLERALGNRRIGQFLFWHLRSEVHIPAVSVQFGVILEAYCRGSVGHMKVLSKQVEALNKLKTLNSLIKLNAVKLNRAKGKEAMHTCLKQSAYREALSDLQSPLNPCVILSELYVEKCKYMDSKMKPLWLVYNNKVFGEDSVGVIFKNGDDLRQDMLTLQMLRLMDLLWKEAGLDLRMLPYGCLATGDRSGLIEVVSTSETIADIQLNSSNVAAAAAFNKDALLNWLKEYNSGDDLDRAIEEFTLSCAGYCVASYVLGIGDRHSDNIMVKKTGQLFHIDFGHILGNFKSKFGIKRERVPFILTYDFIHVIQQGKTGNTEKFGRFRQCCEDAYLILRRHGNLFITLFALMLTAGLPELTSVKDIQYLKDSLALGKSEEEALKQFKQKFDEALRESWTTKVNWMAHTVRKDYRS

IC50 [1]: 4.39 µM | IC50 [2]: 13.6 µM | IC50 [3]: 12.5 µM | IC50 [4]: 3.11 µM
Structure (SMILES): CCOC(=O)c1nn(-c2ccccc2)c(=O)c2c(N)c(C#N)c(-c3cccs3)cc12
IC50 (SNB-75): 3.7 µg/mL (≈ 8.88 µM)

IC50 (Aurora kinase B): 6 nM
Structure (SMILES): c1cc2[nH]ncc2cc1-c1cnc2ccc(OC[C@H]3CNCCO3)nn12

IC50 [6]: 90 nM
Structure (SMILES): Cc1cc(Oc2ccc(NC(=O)c3sc(-c4ccccn4)nc3C)cc2)c2nncn2n1
IC50 (HeLa): 2730 nM | IC50 (MCF7 [5]): 1200 nM | IC50 (A549): 1060 nM

Structure (SMILES): Oc1ccc(/C=N/Nc2nn3c(C(F)(F)F)nnc3c3ccccc23)cc1
IC50 (HepG2): 11.2 µM | IC50 (MCF7 [7]): 8.04 µM | IC50 (PC-3 [8]): 4.25 µM | IC50 (HCT-116 [9]): 5.7 µM

IC50 [10]: 650 nM
Structure (SMILES): COc1cccc(C2=NN(c3ccc(-c4ccccc4)nn3)C(c3ccc(F)c(OC)c3)C2)c1 (stereo not drawn)

Structure (SMILES): C[C@H]1CNC(=O)c2cnn3ccc(nc23)N[C@H](C)c2cc(F)ccc2O1 [REPOTRECTINIB]
IC50 [11]: 208 nM | IC50 [12]: 164 nM

Structure (SMILES): CCN(CC)CCNc1cc(-c2ccc(Br)cc2)nn2c(=O)c3ccccc3nc12
Activity (MGC-803): 55.9%

Structure (SMILES): CNC(=O)c1cc(Oc2ccc(NC(=O)Nc3ccc(Cl)c(C(F)(F)F)c3)cc2)ccn1 [SORAFENIB]
IC50 (PC-3 [13]): 11.5 µM

Structure (SMILES): COC(=O)C(CC(C)(C)C)NC(=O)CNC(=O)COc1nn(-c2ccccc2)c(=O)c2ccccc12 (stereo not drawn)
IC50 (HCT-116 [14]): 1360 nM

IC50 (T47D): 430 nM | IC50 (MDA-MB-231): 900 nM
Structure (SMILES): O=C(NCC1CCOCC1)c1cc(C(F)(F)F)c(N2CCOCC2)nn1

IC50 (PC-3 [13]): 7.83 µM
Structure (SMILES): O=C1CCC(c2ccc(NC(=S)Nc3ccccc3)cc2)=NN1c1ccccc1
